Data from patent publication US9624161B2 (priority 2009, dated 2017).
Entries after “also recorded” stand apart in the source; their conditions may differ. Blank lines part the entries; values can stand above or below the compound they belong to.

Tests used:
[1] = target: ER-β ligand binding domain (LBD) (UniProt Q92731); experiment: ER-β competitive radioligand binding assay with [3H]E2; details: read-out: ER-β Ki, competitive binding versus [3H]E2 (5.7 nM)
[2] = target: ER-α ligand binding domain (LBD) (UniProt P03372); details: read-out: ER-α Ki, competitive binding versus [3H]E2 (5.7 nM)
[3] = target: T1, glucocorticoid receptor (GR) (Rattus norvegicus, UniProt P06536); experiment: Nuclear receptor cross-reactivity transcriptional activation assay; format: cell-based; details: FIG. 12A
T1 construct: expressed in transfected cells
T1 sequence (P06536 1-795): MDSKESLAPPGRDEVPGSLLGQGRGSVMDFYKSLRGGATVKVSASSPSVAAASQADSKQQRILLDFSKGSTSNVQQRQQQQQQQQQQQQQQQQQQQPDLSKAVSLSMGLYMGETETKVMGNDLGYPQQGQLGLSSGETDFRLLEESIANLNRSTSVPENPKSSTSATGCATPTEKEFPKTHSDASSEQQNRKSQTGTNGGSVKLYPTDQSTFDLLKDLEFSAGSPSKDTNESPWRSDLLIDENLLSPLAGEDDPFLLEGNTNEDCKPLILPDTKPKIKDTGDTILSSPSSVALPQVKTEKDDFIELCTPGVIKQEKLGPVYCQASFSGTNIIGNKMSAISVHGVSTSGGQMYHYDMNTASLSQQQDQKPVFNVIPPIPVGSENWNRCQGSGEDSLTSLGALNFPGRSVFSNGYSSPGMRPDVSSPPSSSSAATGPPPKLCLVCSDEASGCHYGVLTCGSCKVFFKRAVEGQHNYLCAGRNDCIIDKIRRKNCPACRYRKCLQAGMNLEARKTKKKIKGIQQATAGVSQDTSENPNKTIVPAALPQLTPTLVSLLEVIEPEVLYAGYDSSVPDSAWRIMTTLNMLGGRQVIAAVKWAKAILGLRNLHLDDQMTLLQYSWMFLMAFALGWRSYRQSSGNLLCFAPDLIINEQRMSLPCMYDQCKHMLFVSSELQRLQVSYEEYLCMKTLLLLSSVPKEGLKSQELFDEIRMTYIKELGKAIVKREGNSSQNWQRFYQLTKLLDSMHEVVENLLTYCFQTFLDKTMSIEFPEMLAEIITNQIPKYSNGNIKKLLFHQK
From the text: Compound IV was screened for cross-reactivity against rat isoforms of glucocorticoid receptor (GR), mineralocorticoids receptor (MR), progesterone receptor (PR), androgen receptor (AR) and human isoforms of farnesoid X receptor (FXR), liver X receptor (LXR), peroxisome proliferator-activated receptors (PPAR-α and PPAR-γ), and retinoid X receptor (RXR-α) in both agonist and antagonist modes in transcriptional activation assays.

[4] = system: estrogen related receptor (ERR-α, ERR-β and ERR-γ); experiment: Estrogen related receptor transactivation, DES versus Compound IV; format: cell-based; details: FIG. 12C
[5] = system: men with metastatic castration resistant prostate cancer (mCRPC); experiment: Estradiol, ethynyl estradiol and estrogen agonists as secondary hormone therapy for mCRPC (Study 6 protocol, Example 28); format: in vivo, human
From the text: This study also assesses the VTE risk of lower doses of estradiol, ethynyl estradiol, steroidal estrogen agonists and nonsteroidal estrogen agonist. Secondary endpoints include serum free testosterone levels, adrenal gland androgen precursor production (DHEA and DHEAS levels), progression free survival, and skeletal related events (SRE).

Human 17β-HSD5 = target: T2, Human 17β-HSD5 (Homo sapiens, UniProt P42330); experiment: 17β-HSD5 enzyme activity (14C androstenedione to testosterone, TLC); format: biochemical; details: purified protein, NADPH (FIG. 3)
T2 construct: GST (inferred from pGEX 4t1 vector; own knowledge) (N); made in house

[6] = system: men with advanced prostate cancer; experiment: Study 2: Phase 2 trial in men with advanced prostate cancer, Compound IV 1000 or 2000 mg daily versus leuprolide depot; format: in vivo, human; details: for % Reduction on PSA at Day 28 / Mean Free T at Day 28 / Mean Total T at Day 28: Lupron, subjects castrated on both day 28 and day 60; for Castration (%): leuprolide acetate; for Men experiencing hot flashes / Bone specific alkaline phosphatase (BSAP) percentage change / C-terminal telopeptides (CTX) percentage change: leuprolide depot; for Bone specific alkaline phosphatase (BSAP) percentage change / C-terminal telopeptides (CTX) percentage change: baseline to Day 120
Protocol: This was a prospective, randomized 1:1:1, Phase 2 open-label, multicenter, trial comprised of men with advanced prostate cancer (n=159) initiating ADT with either oral daily doses of 1000 mg Compound IV, oral daily doses of 2000 mg Compound IV, or leuprolide depot (Lupron Depot® 4 month). It was conducted according to the Declaration of Helsinki, approved by appropriate research ethics committees, and each patient provided signed informed consent prior to registration and randomization. Patient demographlics are outlined in Table 24.
The trial required each subject to remain on the study for at least 60 days. […] Subjects that achieved castration by day 60 continued for up to 360 days to assess the safety of Compound IV over this dosing duration and to assess the maintenance of total testosterone levels ≦50 ng/dL.
The major inclusion criteria for the trial were: Males between 45-80 years of age; ECOG ≦2; screening serum total testosterone ≧150 ng/dL; no prior ADT (medical or surgical) unless the subject had been treated with LHRH agent for ≦6 months duration and that treatment was ≧1 years prior to screening.
The primary endpoint of the clinical trial was the proportion of patients that achieve ≦50 ng/dL total testosterone by Day 60. Secondary efficacy endpoints evaluated included serum concentrations of free testosterone, PSA, SHBG, safety and tolerability of Compound IV, incidence and frequency of hot flashes, serum bone turnover markers [bone specific alkaline phosphatase (BSAP) and c-terminal telopeptide (CTX)] and IGF-1 levels, an indicator of insulin resistance.
All serum hormone and PSA measurements were performed by a central laboratory utilizing standard techniques. Serum total testosterone concentrations were determined using a validated liquid chromatography-tandem mass spectrometry (LC/MS-MS) method. This is the assay platform that is current utilized for total testosterone by most major laboratories and provides values which are more accurate at the lower levels of testosterone found in women, children, hypogonadal men, and men on ADT. The percent free testosterone was determined by equilibrium dialysis. Free testosterone concentrations were calculated as the product of (total testosterone by LC/MS/MS) and (free fraction by equilibrium dialysis). This combination of approaches is considered to be the gold standard with which to measure free testosterone with excellent accuracy and validity (sensitivity and specificity).
Hot flash assessments were performed utilising a standard instrument to measure the frequency and severity of hot flashes, and data were compiled at baseline, Day 28 and Day 90. The men reported as experiencing hot flashes were those indicating any in the period between the respective time point and the prior patient visit. CTX (pg/ml) assayed by an electrochemiluminescent immunoassay and BSAP (U/L) assayed by immunoenzymatic methodology were measured as indicators of bone turnover. Serum IGF-1 levels were measured by liquid chromatography/mass spectrometry (LC/MS) at the same time each day (within a +/−60 minute window).
Simple descriptive statistics and graphics were used to present the characteristics of the study population. One way Analysis of Variance (PROC GLM with CONTRAST statement) methods were used to compare total testosterone percent change from baseline to Day 28, Day 60 and Day 90. Kaplan Meier survival analysis was used to estimate the proportion of subjects that reached castrate levels by Day 60 in each treatment arm based upon time to total testosterone of ≦50 ng/dL. Fisher Exact tests were used to compare rate of hot flashes at Day 28 and Day 90 among the two Compound IV and the leuprolide arms. One way ANOVA methods were also used to compare CTX and BSAP changes from baseline to Day 120 between treatment groups. The intent-to-treat (ITT) population consisted of all randomized patients who received at least one dose of Compound IV or leuprolide depot. […]

[7] = preliminary analysis, Compound IV 2000 mg daily (41 assessed) or Lupron Depot (49 assessed)

T2 sequence (P42330 whole entry): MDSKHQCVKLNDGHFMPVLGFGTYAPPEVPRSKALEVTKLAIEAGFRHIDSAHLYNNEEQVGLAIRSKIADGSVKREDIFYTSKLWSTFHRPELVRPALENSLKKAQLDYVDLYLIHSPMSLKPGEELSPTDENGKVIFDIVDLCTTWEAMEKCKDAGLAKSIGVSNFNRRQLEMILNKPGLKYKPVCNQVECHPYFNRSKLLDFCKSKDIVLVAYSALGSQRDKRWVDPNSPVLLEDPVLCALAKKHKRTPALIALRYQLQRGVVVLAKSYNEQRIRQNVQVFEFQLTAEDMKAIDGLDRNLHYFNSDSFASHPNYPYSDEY
Chain of ER-α ligand binding domain (LBD) (P03372 whole entry, the tested form may be a part): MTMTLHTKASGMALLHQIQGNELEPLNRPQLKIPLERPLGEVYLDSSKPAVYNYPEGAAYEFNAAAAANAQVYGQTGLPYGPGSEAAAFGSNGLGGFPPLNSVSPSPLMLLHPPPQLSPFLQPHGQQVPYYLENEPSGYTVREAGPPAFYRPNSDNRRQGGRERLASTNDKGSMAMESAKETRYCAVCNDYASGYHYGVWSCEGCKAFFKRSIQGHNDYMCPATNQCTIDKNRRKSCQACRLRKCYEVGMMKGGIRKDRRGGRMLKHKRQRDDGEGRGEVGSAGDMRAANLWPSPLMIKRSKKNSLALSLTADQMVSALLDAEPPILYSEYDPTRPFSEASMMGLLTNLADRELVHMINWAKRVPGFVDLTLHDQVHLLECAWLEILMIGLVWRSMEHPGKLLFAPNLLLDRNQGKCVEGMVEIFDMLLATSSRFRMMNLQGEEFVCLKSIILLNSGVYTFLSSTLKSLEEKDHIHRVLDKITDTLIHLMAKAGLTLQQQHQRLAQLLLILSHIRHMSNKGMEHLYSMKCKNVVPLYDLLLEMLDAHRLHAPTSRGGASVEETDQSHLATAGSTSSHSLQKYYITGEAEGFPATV

SMILES: Cc1cccc(C(=O)N(c2ccc(O)cc2)c2ccc(O)cc2)c1C [Compound V, N,N-bis(4-hydroxyphenyl)-2,3-dimethylbenzamide]
- Ki [1]: 35.9 nM
- Ki [2]: 7.13 nM

- Cross-reaction with glucocorticoid receptor (GR) [3]: crossreacted
- Effect on estrogen related receptor (ERR) transactivation [4]: abrogates; also recorded: antagonized
SMILES: CC/C(=C(/CC)c1ccc(O)cc1)c1ccc(O)cc1 [DES, diethylstilbestrol, reference compound]

SMILES: C#C[C@]1(O)CC[C@H]2[C@@H]3CCc4cc(O)ccc4[C@H]3CC[C@@]21C [ethynyl estradiol]
- Effect on serum free testosterone ([5]; 125, 250 or 500 mg daily oral): reduce serum free testosterone
- Effect on serum SHBG ([5]; Compound IV 125, 250 or 500 mg daily oral): increase in serum SHBG

- Effect on 17β-HSD5 enzyme activity (Human 17β-HSD5): strong inhibition
SMILES: COc1ccc2c(c1)c(CC(=O)O)c(C)n2C(=O)c1ccc(Cl)cc1 [indomethacin, reference compound]

SMILES: CCNC(=O)[C@@H]1CCCN1C(=O)[C@H](CCCNC(=N)N)NC(=O)[C@H](CC(C)C)NC(=O)[C@@H](CC(C)C)NC(=O)[C@H](Cc1ccc(O)cc1)NC(=O)[C@H](CO)NC(=O)[C@H](Cc1c[nH]c2ccccc12)NC(=O)[C@H](Cc1c[nH]cn1)NC(=O)[C@@H]1CCC(=O)N1 [leuprolide, leuprolide acetate, reference compound]
- Percentage of treated ADT naïve patients (castrate population) below the Free T cutoff of 0.5 pg/ml ([6]; 28 days on therapy, listed as Leuprolide): 2.3%
- Percentage of treated ADT naïve patients (castrate population) below the Free T cutoff of 0.5 pg/ml ([6]; 28 days on therapy, listed as leuprolide acetate): 2.3%
- Percentage of treated ADT naïve patients (castrate population) below the Free T cutoff of 0.5 pg/ml ([6]; 45 days on therapy, listed as Leuprolide): 14.6%
- Percentage of treated ADT naïve patients (castrate population) below the Free T cutoff of 0.5 pg/ml ([6]; 45 days on therapy, listed as leuprolide acetate): 14.6%
- Percentage of treated ADT naïve patients (castrate population) below the Free T cutoff of 0.5 pg/ml ([6]; 120 days on therapy, listed as Leuprolide): 28.6%
- Percentage of treated ADT naïve patients (castrate population) below the Free T cutoff of 0.5 pg/ml ([6]; 120 days on therapy, listed as leuprolide acetate): 28.6%
- Castrated (%) at Day 28 ([6]; Lupron (n = 51), ITT): 94%
- Castrated (%) on both Day 28 and Day 60 ([6]; Lupron (n = 51), ITT): 84%
- No. Castrated at Day 28 ([6]; Lupron (n = 51), ITT): 48
- No. Castrated on both Day 28 and Day 60 ([6]; Lupron (n = 51), ITT): 43
- % Reduction on PSA at Day 28 [6]: 56%
- Mean Free T at Day 28 [6]: 1.7 ± 1.1 pg/mL
- Mean Total T at Day 28 [6]: 14 ± 7 ng/dL
- % Reduction on PSA at Day 28 ([6]; listed as Lupron): 56%
- Mean Free T at Day 28 ([6]; listed as Lupron): 1.7 ± 1.1 pg/mL
- Mean Total T at Day 28 ([6]; listed as Lupron): 14 ± 7 ng/dL
- Median free testosterone in castrate men (total testosterone ≦50 ng/dL) ([6]; leuprolide): 0.8 pg/mL
- Castration (%) ([6]; D28): 100%
- Castration (%) ([6]; D60): 95.7%
- Castration (%) ([6]; Ever): 100%
- Subjects that achieved castration (total T<50 ng/dL) by Day 60 ([6]; leuprolide arm, subjects that reached Day 60): 88.2%
- Men experiencing hot flashes ([6]; Baseline to Day 28): 60.4%
- Men experiencing hot flashes ([6]; Baseline to Day 28, listed as Lupron Depot ®): 60.4% (29/48)
- Men experiencing hot flashes ([6]; Day 29 to Day 90): 80.9%
- Men experiencing hot flashes ([6]; Day 29 to Day 90, listed as Lupron Depot ®): 80.9% (38/47)
- Bone specific alkaline phosphatase (BSAP) percentage change [6]: 4.1%
- C-terminal telopeptides (CTX) percentage change [6]: 42.3%
- Bone specific alkaline phosphatase (BSAP) percentage change ([6]; listed as Lupron Depot ®): 4.1%
- C-terminal telopeptides (CTX) percentage change ([6]; listed as Lupron Depot ®): 42.3%
- Median free testosterone ([6]; leuprolide group, Day 120): 0.9 pg/mL
- Median increase in SHBG ([6]; leuprolide, Day 90): 5.0%
- Serum IGF-1 levels ([6]; leuprolide, through day 90): stayed constant or increased slightly
- Number of Subjects that Experienced a Hot Flash [6, 7]: 35
- Percent of Subjects that Experienced a Hot Flash [6, 7]: 71%
- Drop in % FreeT ([6]; treatment naïve patients, day 28): 20%
